Measurements reported in PubChem BioAssay AID651901 (NMMLSC, 2012).
Activity calls are given as the source filed them. The rule behind the calls is not given here.

Biological target: Lethal factor (Bacillus anthracis) (UniProt P15917)
Test: Bacillus anthracis LF protease inhibitors, dose response, biochemical, multiplex microsphere (AID 651901)
Conditions: multiplex microsphere LF protease cleavage assay, flow cytometry

Lethal factor (Bacillus anthracis), sequence (P15917 whole entry, looked up): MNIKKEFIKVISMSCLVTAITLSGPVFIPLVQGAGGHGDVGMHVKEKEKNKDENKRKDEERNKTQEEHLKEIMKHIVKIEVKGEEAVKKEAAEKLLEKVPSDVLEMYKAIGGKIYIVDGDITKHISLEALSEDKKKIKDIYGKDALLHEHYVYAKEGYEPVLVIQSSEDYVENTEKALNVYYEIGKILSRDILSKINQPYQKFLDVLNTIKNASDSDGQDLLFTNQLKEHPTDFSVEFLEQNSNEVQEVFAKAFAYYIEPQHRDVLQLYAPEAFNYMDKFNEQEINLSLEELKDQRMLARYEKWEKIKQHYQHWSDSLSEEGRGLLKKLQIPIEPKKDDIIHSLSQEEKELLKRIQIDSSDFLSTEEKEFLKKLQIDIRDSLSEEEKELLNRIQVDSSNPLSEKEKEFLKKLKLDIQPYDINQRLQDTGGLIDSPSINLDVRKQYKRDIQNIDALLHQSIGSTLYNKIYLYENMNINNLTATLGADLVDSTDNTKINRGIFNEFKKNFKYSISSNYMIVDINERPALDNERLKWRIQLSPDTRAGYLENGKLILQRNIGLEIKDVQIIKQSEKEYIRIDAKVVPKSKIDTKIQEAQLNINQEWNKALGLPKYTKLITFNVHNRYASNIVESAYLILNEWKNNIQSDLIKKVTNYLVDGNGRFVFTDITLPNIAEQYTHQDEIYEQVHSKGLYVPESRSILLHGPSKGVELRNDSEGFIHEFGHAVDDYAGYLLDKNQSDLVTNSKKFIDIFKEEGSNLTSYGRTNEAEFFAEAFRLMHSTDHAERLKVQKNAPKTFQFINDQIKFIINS

SMILES | IC50
c1ccc(C2CC(c3ccccn3)=NN2c2ccccc2)cc1 (centres undefined) | > 20 µM (inactive)
c1ccc(C2CC(c3cccnc3)=NN2c2ccccc2)cc1 (centres undefined) | > 20 µM (inactive)
NS(=O)(=O)c1ccc(N2N=C(c3cccnc3)CC2c2ccccc2)cc1 (centres undefined) | > 20 µM (inactive)
COc1ccc(N2N=C(c3cccnc3)CC2c2ccccc2)cc1 (centres undefined) | > 20 µM (inactive)
c1ccc(C2=NN(c3ccccc3)C(c3ccccc3)C2)cc1 (centres undefined) | > 20 µM (inactive)
c1ccc(-c2cc(-c3ccccc3)n(-c3ccccc3)n2)cc1 | > 20 µM (inactive)
CSc1ccc(C2=NN(c3ccccc3)C(c3ccccc3)C2)cc1 (centres undefined) | > 20 µM (inactive)
CS(=O)(=O)c1ccc(N2N=C(c3ccncc3)CC2c2ccccc2)cc1 (centres undefined) | > 20 µM (inactive)
CNC(=O)c1ccc(N2N=C(c3ccc(SC)cc3)CC2c2ccccc2)cc1 (centres undefined) | > 20 µM (inactive)
COc1ccc(N2N=C(c3ccc(SC)cc3)CC2c2ccccc2)cc1 (centres undefined) | > 20 µM (inactive)
COc1ccc(N2N=C(c3ccncc3)CC2c2ccccc2)cc1 (centres undefined) | > 20 µM (inactive)
CSc1ccc(C2=NN(c3ccc(C(=O)N4CCOCC4)cc3)C(c3ccccc3)C2)cc1 (centres undefined) | > 20 µM (inactive)
O=[N+]([O-])c1ccc(N2N=C(c3ccccc3)CC2c2ccccc2)cc1 (centres undefined) | > 20 µM (inactive)
CNC(=O)c1ccc(N2N=C(c3ccccc3)CC2c2ccccc2)cc1 (centres undefined) | > 20 µM (inactive)
COc1ccc(N2N=C(c3ccccc3)CC2c2ccccc2)cc1 (centres undefined) | > 20 µM (inactive)
CSc1ccc(C2=NN(c3ccc(C(=O)N4CCCCC4)cc3)C(c3ccccc3)C2)cc1 (centres undefined) | > 20 µM (inactive)
CS(=O)(=O)c1ccc(N2N=C(c3cccnc3)CC2c2ccccc2)cc1 (centres undefined) | > 20 µM (inactive)
NS(=O)(=O)c1ccc(N2N=C(c3ccncc3)CC2c2ccccc2)cc1 (centres undefined) | > 20 µM (inactive)
CSc1ccc(C2=NN(c3ccc(S(N)(=O)=O)cc3)C(c3ccccc3)C2)cc1 (centres undefined) | > 20 µM (inactive)
CC(C)NC(=O)c1ccc(N2N=C(c3ccccc3)CC2c2ccccc2)cc1 (centres undefined) | > 20 µM (inactive)
c1ccc(C2CC(c3ccncc3)=NN2c2ccccc2)cc1 (centres undefined) | > 20 µM (inactive)
CS(=O)(=O)c1ccc(N2N=C(c3ccccc3)CC2c2ccccc2)cc1 (centres undefined) | > 20 µM (inactive)
CSc1ccc(C2=NN(c3ccc([N+](=O)[O-])cc3)C(c3ccccc3)C2)cc1 (centres undefined) | 0.1 µM
NS(=O)(=O)c1ccc(N2N=C(c3ccccc3)CC2c2ccccc2)cc1 (centres undefined) | > 20 µM (inactive)
O=C(c1ccc(N2N=C(c3ccccc3)CC2c2ccccc2)cc1)N1CCCCC1 (centres undefined) | > 20 µM (inactive)
COc1ccc(N2N=C(c3ccccn3)CC2c2ccccc2)cc1 (centres undefined) | > 20 µM (inactive)
CC(C)CNC(=O)c1ccc(N2N=C(c3ccccc3)CC2c2ccccc2)cc1 (centres undefined) | > 20 µM (inactive)
CSc1ccc(C2=NN(c3ccc(S(C)(=O)=O)cc3)C(c3ccccc3)C2)cc1 (centres undefined) | > 20 µM (inactive)
O=C(c1ccc(N2N=C(c3ccccc3)CC2c2ccccc2)cc1)N1CCOCC1 (centres undefined) | > 20 µM (inactive)
